Source: patent US10548883B2, “Benzotriazole-derived α and β-unsaturated amide compound used as TGF-β RI inhibitor” (GENFLEET THERAPEUTICS (SHANGHAI) INC., priority 2016, dated 2020)
Values joined by “and” are separate entries in the source; they are usually repeats but may differ in a detail not shown here. Identical values can stand only once.

What was measured:
CT-26 cells = test: Tumor cell proliferation inhibition in BALB/c mouse model of subcutaneously transplanted CT-26 cells, alone or combined with BioXcell-mPD-L1; format: in vivo; details: for Tumor volume: average ± SEM, small molecules 75 mg/kg PO twice a day, BioXcell-mPD-L1 10 mg/kg IP twice a week
Procedure: The following table lists the animal grouping and dosing regimen of embodiment 1, the positive reference compound LY2157299 and the BioXcell PD-L1 monoclonal antibody (BioXcell-mPD-L1), which are used alone or in combination in vivo.
Mouse colon cancer CT-26 cells were cultured in vitro in a single layer, and culture conditions is RPMI1640 medium (Medium No. 1640, Roswell Parker Memorial Institute) supplemented with 10% fetal bovine serum at 37° C., 5% CO2. Passage was routinely digested with trypsin-EDTA twice a week. When the cell saturation is 80%-90%, the cells are collected, counted, and inoculated.
0.1 mL (1×10^5) CT-26 cells were subcutaneously inoculated into the right back of each BALB/c mouse. The mice were administered in groups according to the body weight of the mice on the second day after cell inoculation.
The experimental indicator is to investigate whether tumor growth is inhibited, delayed or cured. Tumor diameters were measured with Vernier calipers twice a week. The tumor volume is calculated as: V=0.5a×b^2, and a and b represent the long and short diameters of the tumor, respectively.
The antitumor effect of the compound was evaluated by TGI (%) or tumor proliferation rate T/C (%). TGI (%) reflects the tumor growth inhibition rate. Calculation of TGI (%): TGI (%)=[(1-(mean tumor volume at the end of administration of a treatment group—mean tumor volume at the start of administration of the treatment group))/(mean tumor volume at the end of treatment of the solvent control group)—mean tumor volume at the start of treatment of the solvent control group)]×100%.
Tumor proliferation rate T/C (%): The formula is as follows: T/C %=T/C×100% (T: treatment group; C: negative control group).
Tumor weights were measured after the end of the experiment and the percentage of T/Cweight was calculated. Tweight and Cweight represent the tumor weights of the drug-administered group and the vehicle control group, respectively.
Statistical analysis, including mean and standard error (SEM) of tumor volume at each time point for each group (see Table 4 for specific data). […] T-test was used for comparison between the two groups, and one-way analysis of variance was used for comparison between three or more groups. If there was a significant difference in F values, the Gass-Howell method was used to test. If there is no significant difference in F values, the Dunnet (2-sided) method is used for analysis. All data analysis was performed with SPSS 17.0. A significant difference was considered at p<0.05.

liver cancer = details: phase 2, patients with liver cancer; cited from earlier work
[1] = tested on: mouse breast cancer 4T1 cells; test: Tumor cell metastasis inhibition in BALB/c mouse orthotopic transplantation model of mouse breast cancer 4T1 cells; format: in vivo; details: 75 mg/kg PO once a day × 32
Procedure: Fluorescently labeled mouse breast cancer 4T1-Luc cells were expanded in vitro. Before the cells were collected, the mice were anesthetized with intraperitoneal injection of sodium pentobarbital. After anesthetized mice were fixed, the abdominal skin was disinfected with 70% alcohol. 100 uL of phosphate buffer (containing 0.5×10^6 4T1-luc2 cells) was inoculated into the left side of the fourth pair of abdominal mammary fat pads in mice, and the incision was sutured to disinfect the skin. The animals are kept warm with a warm blanket, observed until they wake up and put back in their cages. 0.1 mg/kg buprenorphine for pain relief was subcutaneously injected 30 min before surgery and 6 hours after surgery.
On the third day after modeling, the animals were subjected to bioluminescence detection by infrared data imaging, randomly grouped according to the fluorescence values, and administered according to the following experimental protocol, see Table 5.
To observe the inhibitory effect of embodiment 1 on tumor growth and metastasis, the experimental endpoint was designed to be 30-35 days after administration, with reference to historical data of the model. At the end of the experiment, the in situ tumor and various organ tissues were dissected, the tumor was weighed, and the fluorescence intensity of each organ was detected by IVIS fluorescence. Growth inhibition of orthotopic tumors can be compared by the weight of the in situ tumor in the experimental endpoint, and the inhibition curve is generated from the tumor volume measurement data twice a week during the experiment. The inhibition of tumor metastasis was determined by the presence or absence of fluorescence detection of each organ and the analysis of relative fluorescence intensity.
At the end of the experiment, the tumor weight will be detected and the relative tumor growth rate T/C (%) will be calculated; the tumor volume is calculated as: V=0.5a×b^2, and a and b represent the long and short diameters of the tumor, respectively. At the same time, the lung, liver, spleen, kidney, intestine and left upper limb were stripped, and fluorescence was detected to determine whether there was metastasis and metastasis intensity and ratio.
The antitumor effect of the compound was evaluated by the tumor growth inhibition rate TGI (%) or the relative tumor growth rate T/C (%).
Calculation of TGI (%): TGI (%)=[(1−mean tumor volume at the end of administration of a treatment group−mean tumor volume at the start of administration of the treatment group))/(mean tumor volume at the end of treatment of the solvent control group−mean tumor volume at the start of administration of the solvent control group)]×100%.
Relative tumor growth rate T/C (%) calculation: T/C(%)=Tt(treatment group)/Ct(control group)×100%, Tt is the average tumor volume at a certain measurement, and Ct takes the same day data.
The experimental results were statistically analyzed using one-way ANOVA. If there is a significant difference in F values, multiple comparisons should be made after ANOVA analysis. All data in this experiment were analyzed using SPSS 17.0. A significant difference was considered at p<0.05.
At the end of the experiment, each organ tissue was peeled off, and fluorescence imaging and fluorescence intensity value recording were measured by IVIS for 40 sec exposure within 8 min. The fluorescence imaging results of the tested tissues of the 10 animals excised by the maximum and minimum values are shown in Table 6.
According to the experimental end point, the fluorescence intensity of each group of organs was normalized by the control group, and the relative fluorescence intensity ratio of each group of organs was obtained. The ratio reflects the level of metastatic intensity on the corresponding organs.

[2] = animals with metastasis/animals in group
[3] = average organ fluorescence relative to control group

Cc1cccc(-c2nn3c(c2-c2ccnc4ccc(C(N)=O)cc24)CCC3)n1 [LY2157299, Galunisertib, reference compound]
Tumor volume (CT-26 cells; day 10 of administration): 98 ± 14 mm^3 | Tumor volume (CT-26 cells; day 13 of administration): 446 ± 104 mm^3 | Tumor volume (CT-26 cells; day 15 of administration): 840 ± 177 mm^3 | Tumor volume (CT-26 cells; day 17 of administration): 1256 ± 257 mm^3 | Tumor volume (CT-26 cells; day 20 of administration): 2186 mm^3 and 2186 ± 435 mm^3 | Tumor proliferation rate T/C (CT-26 cells; twenty days after start of administration, 75 mg/kg PO and/or 10 mg/kg IP): 85% | Antitumor effect compared with the solvent control group (CT-26 cells; twenty days after start of administration, 75 mg/kg and/or 10 mg/kg): no significant antitumor effect | Patients with a decrease in serum alpha-fetoprotein (AFP) level of more than 20% (liver cancer): about 23% | Metastasis rate, intestine [1, 2]: 60% | Metastasis rate, kidney [1, 2]: 30% | Metastasis rate, liver [1, 2]: 80% | Metastasis rate, lung [1, 2]: 100% | Metastasis rate, spleen [1, 2]: 10% | Metastasis rate, upper limb [1, 2]: 70% | Metastasis level, intestine [1, 3]: 41% | Metastasis level, kidney [1, 3]: 121% | Metastasis level, liver [1, 3]: 31% | Metastasis level, lung [1, 3]: 20% | Metastasis level, spleen [1, 3]: 4% | Metastasis level, upper limb [1, 3]: 54%
